The results in this text go back to US6635641B2 (Agouron Pharmaceuticals, Inc., priority 2000, dated 2003).

Data set [1] deals with T1, phosphorylated VEGF-R2Δ50 (Homo sapiens, UniProt P35968, DEL940-989/E990V).
T1 construct: VEGF-R2Δ50 contains residues 806-939 and 990-1171; made in house; host or cells: baculovirus/insect cells
The data set can be described thus: VEGF-R2 ELISA assay (phosphogastrin formation). In kind it is biochemical. The following applies: @ 10 μM (ELISA); read-out: FLVK-P percent inhibition (ELISA). An excerpt:
A construct (VEGF-R2Δ50) of the cytosolic domain of human vascular endothelial growth factor receptor 2 (VEGF-R2) lacking the 50 central residues of the 68 residues of the kinase insert domain was expressed in a baculovirus/insect cell system. Of the 1356 residues of full-length VEGF-R2, VEGF-R2Δ50 contains residues 806-939 and 990-1171, and also one point mutation (E990V) within the kinase insert domain relative to wild-type VEGF-R2. See commonly assigned, co-pending U.S. patent application Ser. No. 09/390,326, filed Sep. 7, 1999, incorporated by reference herein, for discussion of VEGF constructs and expression systems. Autophosphorylation of the purified construct was performed by incubation of the enzyme at a concentration of 4 μM in the presence of 3 mM ATP and 40 mM MgCl2 in 100 mM Hepes, pH 7.5, containing 5% glycerol and 5 mM DTT, at 4° C. for 2 h. […]
Formation of phosphogastrin was monitored using biotinylated gastrin peptide (1-17) as substrate. […] The activity of horseradish peroxidase was monitored using 2,2′-azino-di-[3-ethylbenzathiazoline sulfonate(6)] diammonium salt (ABTS). […] The horseradish peroxidase reaction was quenched by addition of acid (H2SO4), followed by absorbance reading at 405 nm. Ki values were determined by measuring enzyme activity in the presence of varying concentrations of test compounds. The data were analyzed using Enzyme Kinetic and Kaleidagraph software.
A general note: In an ELISA, binding on a coated surface is turned into a signal by an enzyme label.

In the next data set the target is T2, CDK4/Cyclin D3 complex (Homo sapiens, UniProt P11802).
T2 construct: made in house; host or cells: insect cells co-infected with baculovirus vectors
T2 sequence (P11802 whole entry): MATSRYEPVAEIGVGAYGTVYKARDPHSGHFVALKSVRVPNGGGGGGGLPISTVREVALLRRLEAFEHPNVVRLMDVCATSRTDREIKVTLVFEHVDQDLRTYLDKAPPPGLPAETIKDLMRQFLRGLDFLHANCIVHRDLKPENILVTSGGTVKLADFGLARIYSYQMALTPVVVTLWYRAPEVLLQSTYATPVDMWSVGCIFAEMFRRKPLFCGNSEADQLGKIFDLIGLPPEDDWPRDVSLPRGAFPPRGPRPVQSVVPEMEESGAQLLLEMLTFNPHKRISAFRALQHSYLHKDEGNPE
T2 sequence (P30281 whole entry partner): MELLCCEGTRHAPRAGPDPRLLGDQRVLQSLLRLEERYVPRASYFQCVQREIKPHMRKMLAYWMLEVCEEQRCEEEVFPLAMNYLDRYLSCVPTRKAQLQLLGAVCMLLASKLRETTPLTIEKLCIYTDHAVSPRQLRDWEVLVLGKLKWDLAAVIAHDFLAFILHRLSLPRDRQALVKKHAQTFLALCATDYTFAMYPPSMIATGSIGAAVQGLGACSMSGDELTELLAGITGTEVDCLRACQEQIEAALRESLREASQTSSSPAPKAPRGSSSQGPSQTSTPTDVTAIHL
Nature of the data set: CDK4/Cyclin D assay ([32P]ATP incorporation into Rb fragment). It counts as biochemical. The following applies: μM. The protocol: A complex of human CDK4 and cyclin D3, or a complex of cyclin D1 and a fusion protein of human CDK4 and glutathione-S-transferase (GST-CDK4), was purified using traditional biochemical chromatographic techniques from insect cells that had been co-infected with the corresponding baculovirus expression vectors.
(§1) Cyclin-dependent kinase activity was measured by quantifying the enzyme-catalyzed, time-dependent incorporation of radioactive phosphate from [^32P]ATP into a recombinant fragment of the retinoblastoma protein. Unless noted otherwise, assays were performed in 96-well plates in a total volume of 50 μL, in the presence of 10 mM HEPES (N-[2-hydroxyethyl]piperazine-N′-[2-ethanesulfonic acid]) (pH 7.4), 10 mM MgCl2, 25 μM adenosine triphosphate (ATP), 1 mg/mL ovalbumin, 5 μg/mL leupeptin, 1 mM dithiothreitol, 10 mM β-glycerophosphate, 0.1 mM sodium vanadate, 1 mM sodium fluoride, 2.5 mM ethylene glycol-bis(β-aminoethyl ether)-N,N,N′N′-tetraacetic acid (EGTA), 2% (v/v) dimethylsulfoxide, and 0.03-0.2 μCi [^32P]ATP. The substrate (0.3-0.5 μg) was purified recombinant retinoblastoma protein fragment (Rb) (residues 386-928 of the native retinoblastoma protein; 62.3 kDa, containing the majority of the phosphorylation sites found in the native 106-kDa protein, as well as a tag of six histidine residues for ease of purification). Reactions were initiated with CDK2 (150 nM CDK2/Cyclin A complex) or CDK4 (50 nM CDK4/Cyclin D3 complex), incubated at 30° C., and terminated after 20 minutes by the addition of ethylenediaminetetraacetic acid (EDTA) to 250 mM. The phosphorylated substrate was then captured on a nitrocellulose membrane using a 96-well filtration manifold, and unincorporated radioactivity was removed by repeated washing with 0.85% phosphoric acid. Radioactivity was quantified by exposing the dried nitrocellulose membranes to a phosphorimager. Apparent Ki values were measured by assaying enzyme activity in the presence of different compound concentrations and subtracting the background radioactivity measured in the absence of enzyme. The kinetic parameters (kcat, Km for ATP) were measured for each enzyme under the usual assay conditions by determining the dependence of initial rates on ATP concentration. The data were fit to an equation for competitive inhibition using Kaleidagraph (Synergy Software), or were fit to an equation for competitive tight-binding inhibition using the software KineTic (BioKin, Ltd.). Measured Ki values for known inhibitors against CDK4 and CDK2 agreed with published IC50 values. The specific activity of CDK4 was the same whether complexed to full-length cyclin D3 or the truncated Cyclin D3 construct; both complexes also yielded very similar Ki values for selected inhibitors.

In data set [2] the test system is lung cancer cells (line MV522). Nature of the data set: Cancer cell proliferation (MV522) assay (MTT). In kind it is cell-based. The following applies: MV522. The method, boiled down:
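Proliferation was read by MTT reduction 72 h after compound addition, in a 4-day protocol with no starvation step. Two thousand MV522 cells were seeded in RPMI1640 with 10% FBS and 2 mM glutamine and given 1 day to attach before dosing.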

The target of another data set is CDK2/Cyclin A complex (Homo sapiens, UniProt P24941). The data set can be described thus: CDK2/Cyclin A assay ([32P]ATP incorporation into Rb fragment). It counts as biochemical. The following applies: μM. Here is the method: CDK2 was purified using published methodology (Rosenblatt et al., J. Mol. Biol., 230, 1317-1319 (1993)) from insect cells that had been infected with a baculovirus expression vector. Cyclin A was purified from E. coli cells expressing full-length recombinant cyclin A, and a truncated cyclin A construct was generated by limited proteolysis and purified as described previously (Jeffrey et al., Nature, 376, 313-320 (1995)).
as §1, with “The specific activity of CDK4 was the same whether complexed to full-length cyclin D3 or the truncated Cyclin D3 construct; both complexes also yielded very similar Ki values for selected inhibitors.” left out

For data set [3], the target named is T3, phosphorylated VEGF-R2Δ50 (FLVK-P) (Homo sapiens, UniProt P35968, DEL940-989/E990V).
T3 construct: VEGF-R2Δ50 contains residues 806-939 and 990-1171; made in house; host or cells: baculovirus/insect cells
T3 sequence (P35968 with tags, fused parts or gaps DEL940-989/E990V limits assumed): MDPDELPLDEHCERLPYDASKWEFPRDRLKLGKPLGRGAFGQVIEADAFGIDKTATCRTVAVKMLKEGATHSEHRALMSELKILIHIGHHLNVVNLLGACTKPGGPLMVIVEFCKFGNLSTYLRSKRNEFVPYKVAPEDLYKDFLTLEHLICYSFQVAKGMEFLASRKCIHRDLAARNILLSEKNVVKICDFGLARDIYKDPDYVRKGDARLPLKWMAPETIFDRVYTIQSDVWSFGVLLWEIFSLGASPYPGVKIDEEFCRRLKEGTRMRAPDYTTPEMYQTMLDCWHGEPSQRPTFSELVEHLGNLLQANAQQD
Nature of the data set: VEGF-R2 coupled spectrophotometric assay, phosphorylated construct (FLVK-P). In kind it is biochemical. The method, boiled down:
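Baculovirus-expressed VEGF-R2Δ50 (residues 806-939/990-1171, E990V), optionally autophosphorylated; ADP formation coupled via PK/LDH to NADH oxidation at 340 nm, pH 7.5 Hepes. FLVK-P: 1 mM ATP, 5.1 mM poly(E4Y1), 25 mM MgCl2; FLVK: 3 mM ATP, 20 mM poly(E4Y1), 60 mM MgCl2, 2 mM MnCl2. Ki from activity over compound concentrations.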

Data set [4] has as its target T4, unphosphorylated VEGF-R2Δ50 (FLVK) (Homo sapiens, UniProt P35968, DEL940-989/E990V).
T4 construct: VEGF-R2Δ50 contains residues 806-939 and 990-1171; made in house; host or cells: baculovirus/insect cells
The data set can be described thus: VEGF-R2 coupled spectrophotometric assay, unphosphorylated construct (FLVK).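 Also: Baculovirus-expressed cytosolic kinase domain, ADP formation linked via pyruvate kinase and lactate dehydrogenase to NADH oxidation, read as falling absorbance at 340 nm.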 In kind it is biochemical.

Data set [5] deals with human umbilical vein endothelial cells (HUVEC). Nature of the data set: HUVEC proliferation assay (VEGF-stimulated, MTT). It counts as cell-based. The following applies: Homo sapiens, HUVEC; read-out: HUVEC IC50. The method, boiled down: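 Exponentially growing HUVEC (passage 3-4) were serum-starved 24 h in F12K + 1% FBS, given test compound (final DMSO 0.1%), then stimulated 1 h later with VEGF at 6 ng/ml final. Proliferation read after 72 h by 4 h MTT dye reduction, absorbance at 595.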

Each structure is given as a SMILES string.

T1 sequence (P35968 with tags, fused parts or gaps DEL940-989/E990V limits assumed): as above
T4 sequence (P35968 with tags, fused parts or gaps DEL940-989/E990V limits assumed): as above

For `O=C(NCc1ccc2c(c1)OCO2)c1cccc(CSc2ncnc3[nH]ncc23)c1` [Example B-6, N-(1,3-Benzodioxyl-5-ylmethyl)-3-[(1H-pyrazolo[3,4-d]pyrimidin-4-yl)sulfanylmethyl]benzamide], the inhibition at 10 µM in data set [1] stood at 62%.
With `COc1cc(NC(=O)c2cccc(SCc3cc(Nc4ccccc4)n[nH]3)c2)cc(OC)c1OC` [Example E-2], the melting point lay within 67 to 69 °C. For the same compound, the Ki on CDK4/Cyclin D3 complex was above 100 µM. In data set [2], the IC50 is above 10000 nM. The Ki on CDK2/Cyclin A complex is above 100 µM. Besides, the Ki in data set [3] came to 4.79 nM. In addition, affinity in data set [4] was put at a Ki of 0.95 nM. In addition, the IC50 in data set [5] turned out to be 55 nM.

As usually defined, the inhibition is the share of the control response that was lost under treatment. What is called Ki is the dissociation constant of the complex between target and ligand, obtained from inhibition or displacement. As a reminder, the IC50 is the concentration needed to halve the response being measured. For orientation: melting point means the temperature of the solid-liquid transition.
